Results on 21 molecules are retold here after patent US20090318424A1, “NOVEL COMPOUNDS” (priority 2006, published 2009).

“Also recorded” adds a separate entry of the source.

For this assay, the system named is influx of neutrophils to the lung in LPS-challenged rats. As to the kind of experiment: Rat LPS neutrophilia model. The class given is in vivo. The note with it: LPS aerosol 100 ug/ml 15 min, lavage 4 hours later; in at least one of the range of conditions tested. The procedure:
The effect of compounds on the influx of neutrophils to the lung in LPS-challenged rats is evaluated as follows. The test compound is suspended in one of the following solutions: 0.5% tween 80/PBS, 0.5% tween 80/saline, 10% EtOH/saline (with pH adjusted to 2.0, or 8.0 with HCl, or unadjusted), Saline @ pH 2.0, 6.5 or 8.0, 0.5% Tragacanth, 1% DMSO/20% Encapsin/Saline, or acidified 5% Tragacanth. The suspension process may be aided by the use of a glass homogenizer. For intratracheal administration, the animals are anesthetized with inhaled isoflurane and placed in a supine position, the trachea is intubated with a steel gavage needle (1.5 inch, 22 gauge, small ball) or a Penn-Century Microsprayer Aerosolizer (model IA-IB) and 200 ul of dosing solution is delivered. The animals are visually monitored during the recovery process, which typically occurs within two minutes.
Rats treated with compound or vehicle (15 min-24 hours pretreatment) are exposed to an LPS aerosol (100 ug/ml) for 15 min. Four hours later the rats are euthanized with pentobarbital (100 mg/kg, i.p.) and the airways are lavaged with 5 washes of 5 ml of phosphate buffered saline. The harvested cells are stained (Diffquick) and counted to determine total and differential cell data. In a typical study, macrophages represent 40-70% of the total cells, and polymorphonuclear cells 30-60% of the total cells. Inhibition of neutrophil levels relative to no compound controls is calculated based on the differential counts.
The assay has varying conditions, such as concentration, pretreat time, form of the compound (crystalline, amorphous, salts, micronised), and a wet or dry application of the compound. The data is obtained as % inhibition using a particular concentration and pretreat time.
On to `CSc1nc(-c2cc(NC(=O)c3ccsc3)ccc2C)c2c(n1)N(c1c(F)cccc1F)C(=O)NC2` [7(c), N-{3-[8-(2,6-Difluorophenyl)-2-(methylthio)-7-oxo-5,6,7,8-tetrahydropyrimido[4,5-d]pyrimidin-4-yl]-4-methylphenyl}-3-thiophenecarboxamide], for which the inhibition of neutrophilia entry was “inactive”.

Regarding `Cc1ccc(C(=O)Nc2ccc(F)cc2)cc1-c1nc(NCCN(C)C)nc2c1CNC(=O)N2c1c(F)cccc1F` [8(c), 3-(8-(2,6-difluorophenyl)-2-{[2-(dimethylamino)ethyl]amino}-7-oxo-5,6,7,8-tetrahydropyrimido[4,5-d]pyrimidin-4-yl)-N-(4-fluorophenyl)-4-methylbenzamide], the inhibition of neutrophilia result is “statistically significant inhibition”.

In the case of `CSc1nc(-c2cc(NC(=O)c3ccc(C)c(F)c3)ccc2C)c2c(n1)N(c1c(F)cccc1F)C(=O)NC2` [23(c), N-{3-[8-(2,6-difluorophenyl)-2-(methylthio)-7-oxo-5,6,7,8-tetrahydropyrimido[4,5-d]pyrimidin-4-yl]-4-methylphenyl}-3-fluoro-4-methylbenzamide], the inhibition of neutrophilia result is “inactive”.

For the molecule `CCCNC(=O)c1ccc(C)c(-c2nc(NCCCN(CC)CC)nc3c2CNC(=O)N3c2c(F)cccc2F)c1` [29(c), 3-[2-{[3-(diethylamino)propyl]amino}-8-(2,6-difluorophenyl)-7-oxo-5,6,7,8-tetrahydropyrimido[4,5-d]pyrimidin-4-yl]-4-methyl-N-propylbenzamide], the inhibition of neutrophilia entry is on record as “statistically significant inhibition”.

With `Cc1ccc(C(=O)NC(C)C)cc1-c1nc(N(C)CCCN(C)C)nc2c1CNC(=O)N2c1c(F)cccc1F` [34(d), 3-{8-(2,6-difluorophenyl)-2-[[3-(dimethylamino)propyl](methyl)amino]-7-oxo-5,6,7,8-tetrahydropyrimido[4,5-d]pyrimidin-4-yl}-4-methyl-N-(1-methylethyl)benzamide], the inhibition of neutrophilia result was “statistically nonsignificant inhibition”.

For the molecule `Cc1ccc(C(=O)Nc2ccc(F)cc2)cc1-c1nc(N2CCC(N3CCCC3)CC2)nc2c1CNC(=O)N2c1c(F)cccc1F` [86(c), 3-{8-(2,6-difluorophenyl)-7-oxo-2-[4-(1-pyrrolidinyl)-1-piperidinyl]-5,6,7,8-tetrahydropyrimido[4,5-d]pyrimidin-4-yl}-N-(4-fluorophenyl)-4-methylbenzamide], the inhibition of neutrophilia result is “statistically nonsignificant inhibition”.

In the case of `Cc1ccc(C(=O)Nc2ccc(F)cc2)cc1-c1nc(N2CCC(N3CCCCC3)CC2)nc2c1CNC(=O)N2c1c(F)cccc1F` [87(b), 3-[2-(1,4′-bipiperidin-1′-yl)-8-(2,6-difluorophenyl)-7-oxo-5,6,7,8-tetrahydropyrimido[4,5-d]pyrimidin-4-yl]-N-(4-fluorophenyl)-4-methylbenzamide], the inhibition of neutrophilia entry is reported as “statistically nonsignificant inhibition”.

In the case of `Cc1ccc(C(=O)Nc2nccs2)cc1-c1nc(NCCN(C)C)nc2c1CNC(=O)N2c1c(F)cccc1F` [118(c), 3-(8-(2,6-difluorophenyl)-2-{[2-(dimethylamino)ethyl]amino}-7-oxo-5,6,7,8-tetrahydropyrimido[4,5-d]pyrimidin-4-yl)-4-methyl-N-1,3-thiazol-2-ylbenzamide], the inhibition of neutrophilia result is given as “statistically significant inhibition”.

Take `Cc1ccc(C(=O)Nc2ccc(F)cc2)cc1-c1nc(N(C)CCCN(C)C)nc2c1CNC(=O)N2c1c(F)cccc1F` [Example 9, 3-{8-(2,6-difluorophenyl)-2-[[3-(dimethylamino)-propyl](methyl)amino]-7-oxo-5,6,7,8-tetrahydropyrimido[4,5-d]pyrimidin-4-yl}-N-(4-fluorophenyl)-4-methylbenzamide]: the inhibition of neutrophilia result was “statistically nonsignificant inhibition”.

On to `Cc1ccc(C(=O)Nc2ccc(F)cc2)cc1-c1nc(N(C)CCN(C)C)nc2c1CNC(=O)N2c1c(F)cccc1F` [Example 32, 3-{8-(2,6-difluorophenyl)-2-[[2-(dimethylamino)ethyl](methyl)amino]-7-oxo-5,6,7,8-tetrahydropyrimido[4,5-d]pyrimidin-4-yl}-N-(4-fluorophenyl)-4-methylbenzamide], for which the inhibition of neutrophilia entry was “statistically nonsignificant inhibition”.

Consider `Cc1ccc(C(=O)NC(C)C)cc1-c1nc(N(C)CCN(C)C)nc2c1CNC(=O)N2c1c(F)cccc1F` [Example 36, 3-{8-(2,6-difluorophenyl)-2-[[2-(dimethylamino)ethyl](methyl)amino]-7-oxo-5,6,7,8-tetrahydropyrimido[4,5-d]pyrimidin-4-yl}-4-methyl-N-(1-methylethyl)benzamide], for which the inhibition of neutrophilia entry is “statistically significant inhibition”.

For `Cc1ccc(C(=O)NC(C)C)cc1-c1nc(NCCN(C)C)nc2c1CNC(=O)N2c1c(F)cccc1F` [Example 37, 3-(8-(2,6-difluorophenyl)-2-{[2-(dimethylamino)ethyl]amino}-7-oxo-5,6,7,8-tetrahydropyrimido[4,5-d]pyrimidin-4-yl)-4-methyl-N-(1-methylethyl)benzamide], the inhibition of neutrophilia entry is listed as “statistically nonsignificant inhibition”.

As for `Cc1ccc(C(=O)Nc2ccc(F)cc2)cc1-c1nc(NC2CCN(C)CC2)nc2c1CNC(=O)N2c1c(F)cccc1F` [Example 39, 3-{8-(2,6-difluorophenyl)-2-[(1-methyl-4-piperidinyl)amino]-7-oxo-5,6,7,8-tetrahydropyrimido[4,5-d]pyrimidin-4-yl}-N-(4-fluorophenyl)-4-methylbenzamide], the inhibition of neutrophilia entry was “statistically nonsignificant inhibition”.

As for `Cc1ccc(C(=O)NC(C)C)cc1-c1nc(NCCCN(C)C)nc2c1CNC(=O)N2c1c(F)cccc1F` [Example 40, 3-(8-(2,6-difluorophenyl)-2-{[3-(dimethylamino)propyl]amino}-7-oxo-5,6,7,8-tetrahydropyrimido[4,5-d]pyrimidin-4-yl)-4-methyl-N-(1-methylethyl)benzamide], the inhibition of neutrophilia entry is “statistically significant inhibition”.

As for `Cc1ccc(C(=O)Nc2ccc(F)cc2)cc1-c1nc(NCCCN(C)C)nc2c1CNC(=O)N2c1c(F)cccc1F` [Example 42, 3-(8-(2,6-difluorophenyl)-2-{[3-(dimethylamino)propyl]amino}-7-oxo-5,6,7,8-tetrahydropyrimido[4,5-d]pyrimidin-4-yl)-N-(4-fluorophenyl)-4-methylbenzamide], the inhibition of neutrophilia entry was “statistically significant inhibition”.

For `CCN(CC)CCCNc1nc(-c2cc(C(=O)Nc3ccc(F)cc3)ccc2C)c2c(n1)N(c1c(F)cccc1F)C(=O)NC2` [Example 43, 3-[2-{[3-(diethylamino)propyl]amino}-8-(2,6-difluorophenyl)-7-oxo-5,6,7,8-tetrahydropyrimido[4,5-d]pyrimidin-4-yl]-N-(4-fluorophenyl)-4-methylbenzamide], the inhibition of neutrophilia entry was “inactive”.

`CCCNC(=O)c1ccc(C)c(-c2nc(N(C)CCCN(C)C)nc3c2CNC(=O)N3c2c(F)cccc2F)c1` [Example 53, 3-{8-(2,6-difluorophenyl)-2-[[3-(dimethylamino)propyl](methyl)amino]-7-oxo-5,6,7,8-tetrahydropyrimido[4,5-d]pyrimidin-4-yl}-4-methyl-N-propylbenzamide]: the inhibition of neutrophilia entry is listed as “statistically nonsignificant inhibition”.

With `Cc1ccc(C(=O)NC(C)C)cc1-c1nc(N2CCC(N3CCCCC3)CC2)nc2c1CNC(=O)N2c1c(F)cccc1F` [Example 57, 3-[2-(1,4′-bipiperidin-1′-yl)-8-(2,6-difluorophenyl)-7-oxo-5,6,7,8-tetrahydropyrimido[4,5-d]pyrimidin-4-yl]-4-methyl-N-(1-methylethyl)benzamide], the inhibition of neutrophilia result was “statistically nonsignificant inhibition”.

`Cc1ccc(C(=O)NC(C)C)cc1-c1nc(N2CCC(N3CCCC3)CC2)nc2c1CNC(=O)N2c1c(F)cccc1F` [Example 60, 3-{8-(2,6-difluorophenyl)-7-oxo-2-[4-(1-pyrrolidinyl)-1-piperidinyl]-5,6,7,8-tetrahydropyrimido[4,5-d]pyrimidin-4-yl}-4-methyl-N-(1-methylethyl)benzamide]: the inhibition of neutrophilia entry is “statistically nonsignificant inhibition; also recorded: inactive”.

`Cc1ccc(C(=O)NC(C)C)cc1-c1nc(N2CCC(N3CCC(C)CC3)CC2)nc2c1CNC(=O)N2c1c(F)cccc1F` [Example 70, 3-[8-(2,6-difluorophenyl)-2-(4-methyl-1,4′-bipiperidin-1′-yl)-7-oxo-5,6,7,8-tetrahydropyrimido[4,5-d]pyrimidin-4-yl]-4-methyl-N-(1-methylethyl)benzamide]: the inhibition of neutrophilia result was “statistically significant inhibition”.

For the molecule `Cc1ccc(C(=O)NC(C)C)cc1-c1nc(N2CCC(N3CCN(C)CC3)CC2)nc2c1CNC(=O)N2c1c(F)cccc1F` [Example 72, 3-{8-(2,6-difluorophenyl)-2-[4-(4-methyl-1-piperazinyl)-1-piperidinyl]-7-oxo-5,6,7,8-tetrahydropyrimido[4,5-d]pyrimidin-4-yl}-4-methyl-N-(1-methylethyl)benzamide], the inhibition of neutrophilia entry is “statistically significant inhibition”.
